# From article PMC4403042, “Atrial-like cardiomyocytes from human pluripotent stem cells are a robust preclinical model for assessing atrial-selective pharmacology” (EMBO Molecular Medicine, 2015)
# Tests used:
# embryoid bodies (EBs) = assay: Beating frequency of embryoid bodies from CT or RA differentiations; assay type: cell-based, human; settings: RA-treated EBs, N=16, 37 degrees; control 45/min
# Source text: EMBO Molecular Medicine Peer Review Process File - EMM-2014-04757
# Please, discuss this finding.
# The reviewer raises an important point and we have now discussed this finding on page-17 of the
# the atrial-selective ion channel gene, KCNA5. These experiments also established that KCNJ3 and
# KCNJ5 are regulated by COUP-TFII.
# KCNJ3 and KCNJ5 in atrial CMs. Future studies aimed at dissecting the roles of COUP-TFI and
# COUP-TFII during atrial differentiation are required to understand whether these genes act in
# It also remains to be tested if
# loss of COUP-TFI can be rescued by COUP-TFII and vice versa. However, since myocardial
# ablation of COUP-TFII in the mouse results in a severe phenotype (25), it seems unlikely that
# COUP-TFI can account for loss of COUP-TFII. Nonetheless, it is likely that deletion of both COUP-
# TFI and COUP-TFII might result in a more severe phenotype”.
# On page 5 a Fig S1G is introduced; this should be Fig S1F
# This was an error, which has now been corrected.
# Fig S2 is not introduced in the main text.
# We apologize for the missing text describing Fig. S2. This is now included on page 6 of the revised
# Fig 5 panel G label must be corrected. […]
# a platform maintained at 37 degrees. We determined the beating frequency of N=16 EBs each. […]
# rates recorded were 45/min in control EBs and 60/min in RA-treated EBs (Error bars represent […]
# NKX2-5-eGFP/w hESCs = assay: Cardiac differentiation of hESCs with RA, flow cytometry for GFP at day 15; assay type: cell-based, human
# Source text: A cocktail of cytokines (Fig1A) was used to initiate cardiac differentiation in NKX2-5-eGFP/w hESCs as described previously (Ng et al, [2008]; Elliott et al, [2011]). To direct differentiating hESCs toward an atrial phenotype, timing and concentration of treatment with RA were carefully optimized (Supplementary Fig S1A–C). We hypothesized that specification of CM subtypes in vitro occurs post-mesoderm formation and prior to the onset of cardiac progenitor stage. Accordingly, embryoid bodies (EBs) were supplemented with RA from day 4, just after the transient expression of early cardiac mesoderm marker, MESP1, until day 7, a time point at which key transcription factors such as NKX2.5, GATA4 and MEF2C important for commitment and specification of cardiovascular lineages are activated (Supplementary Fig S1A).
# Therefore, treatment of differentiating hESCs with 1 μmol/l of RA from day 4 to 7 was considered to be most suitable for driving atrial differentiation. As a control, every experiment included parallel differentiating cultures treated with 0.002% DMSO (the final concentration in RA-treated cultures) from day 4 to 7 (Fig1A).
# A transgenic NKX2-5-eGFP/w hESC line that faithfully reports endogenous NKX2.5 expression by GFP was described previously (Elliott et al, [2011]). […]
# Gene expression was determined on the HumanHT-12 v4 Expression BeadChip at ServiceXS, Leiden, The Netherlands. […]
smiles,measurement,setting,value
"CC1=C(/C=C/C(C)=C/C=C/C(C)=C/C(=O)O)C(C)(C)CCC1 [RA, all-trans retinoic acid]",beating frequency of EBs,embryoid bodies (EBs),60 min⁻¹
same,percentage of GFP+ cells at day 15,"NKX2-5-eGFP/w hESCs; RA 1 μmol/l day 4 to 7, flow cytometry, control 65%",50%
same,effect on cardiac differentiation (percentage of GFP+ cells at day 15),NKX2-5-eGFP/w hESCs; RA 1–10 nmol/l day 4 to 7,enhanced cardiac differentiation
